In US11753407B2, “Compounds for treating spinal muscular atrophy” (PTC Therapeutics, Inc., priority 2012, dated 2023):

Experiments:
[1] = system: Smn protein in SMA patient fibroblast cells (GM03813); test: Smn protein assay in cultured cells (SMN HTRF); type: cell-based, human; conditions: SMA patient fibroblast cells, 48 hours; for maximum fold (Fold) increase of Smn protein: 7-point concentration data, fold relative to vehicle control; for EC1.5x for Smn protein expression: 7-point concentration curve, SMN HTRF, concentration producing 1.5 times Smn protein vs DMSO vehicle control
Procedure, shortened: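 Smn protein quantified by HTRF with anti-SMN d2/kryptate pair, 665/620 nm ratio blank-corrected, in RIPA lysates of GM03813 fibroblasts after 48 h compound exposure (7 concentrations, 3.16-fold steps, triplicates). Values: concentration producing 1.5× vehicle Smn level, and maximal fold increase.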

[2] = system: SMN2 minigene mRNA (SMN2-A minigene) in HEK293H cells; test: SMN2 minigene mRNA splicing RT-qPCR assay in cultured cells; type: cell-based, human; conditions: Homo sapiens, HEK293-H; concentration increasing full length SMN2 mRNA 1.5-fold relative to vehicle-treated cells; HEK293H cells with SMN2-A minigene, 24 hours, 7-point concentration data; read-out: EC1.5x for production of full length SMN2 mRNA
Procedure, shortened: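 EC1.5× = concentration raising full-length SMN2 minigene mRNA 1.5-fold over vehicle, from 7-point curves in duplicate. Stably transfected HEK293H cells exposed 24 h at 37 °C; lysates assayed by multiplex RT-qPCR, minigene FL signal normalized to GAPDH via modified ΔΔCt.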

melting point	SMILES	maximum fold (Fold) increase of Smn protein [1]	EC (1.5-fold increase) [2]	EC1.5x for Smn protein expression [1]
142 to 146 °C	O=c1cc(-c2ccccc2F)nc2ccc(N3CCNCC3)cn12 [Compound 51, 2-(2-fluorophenyl)-7-(piperazin-1-yl)-4H-pyrido[1,2-a]pyrimidin-4-one]	** (a fold increase between >1.2 and ≤1.35 is indicated by two stars (**))	3 to 30 µM	–
186 to 188 °C	Cc1ccc(-c2cc(=O)n3cc(N4CCNCC4)ccc3n2)cc1C [Compound 55, 2-(3,4-dimethylphenyl)-7-(piperazin-1-yl)-4H-pyrido[1,2-a]pyrimidin-4-one]	* (A maximum fold increase of ≤1.2 is indicated by one star (*))	1 to 3 µM	–
178 to 180 °C	CN(C)c1cccc(-c2cc(=O)n3cc(N4CCNCC4)ccc3n2)c1 [Compound 57, 2-[3-(dimethylamino)phenyl]-7-(piperazin-1-yl)-4H-pyrido[1,2-a]pyrimidin-4-one]	* (A maximum fold increase of ≤1.2 is indicated by one star (*))	3 to 30 µM	–
153 to 156 °C	O=c1cc(-c2cccc(F)c2)nc2ccc(N3CCNCC3)cn12 [Compound 61, 2-(3-fluorophenyl)-7-(piperazin-1-yl)-4H-pyrido[1,2-a]pyrimidin-4-one]	**** (a fold increase between >1.5 and ≤1.65 is indicated by four stars (****))	0.3 to 1 µM	*** (an EC1.5× between >0.3 μM and ≤1 μM is indicated by three stars (***))
192 to 195 °C	Cc1ccc(-c2cc(=O)n3cc(N4CCNCC4)ccc3n2)cc1 [Compound 63, 2-(4-methylphenyl)-7-(piperazin-1-yl)-4H-pyrido[1,2-a]pyrimidin-4-one]	** (a fold increase between >1.2 and ≤1.35 is indicated by two stars (**))	1 to 3 µM	–
177 to 180 °C	COc1cc(F)c(-c2cc(=O)n3cc(N4CCNCC4)ccc3n2)cc1OC [Compound 64, 2-(2-fluoro-4,5-dimethoxyphenyl)-7-(piperazin-1-yl)-4H-pyrido[1,2-a]pyrimidin-4-one]	** (a fold increase between >1.2 and ≤1.35 is indicated by two stars (**))	3 to 30 µM	–
167 to 170 °C	COc1cc(F)c(-c2cc(=O)n3cc(N4CCN[C@@H](C)C4)ccc3n2)cc1OC [Compound 65, 2-(2-fluoro-4,5-dimethoxyphenyl)-7-[(3S)-3-methylpiperazin-1-yl]-4H-pyrido[1,2-a]pyrimidin-4-one]	** (a fold increase between >1.2 and ≤1.35 is indicated by two stars (**))	3 to 30 µM	–
177 to 181 °C	COc1ccc(-c2cc(=O)n3cc(N4CCNCC4)ccc3n2)cc1C(F)(F)F [Compound 67, 2-[4-methoxy-3-(trifluoromethyl)phenyl]-7-(piperazin-1-yl)-4H-pyrido[1,2-a]pyrimidin-4-one]	*** (a fold increase between >1.35 and ≤1.5 is indicated by three stars (***))	0.1 to 0.3 µM	*** (an EC1.5× between >0.3 μM and ≤1 μM is indicated by three stars (***))
214 to 217 °C	O=c1cc(-c2ccc(F)c(C(F)(F)F)c2)nc2ccc(N3CCNCC3)cn12 [Compound 77, 2-[4-fluoro-3-(trifluoromethyl)phenyl]-7-(piperazin-1-yl)-4H-pyrido[1,2-a]pyrimidin-4-one]	** (a fold increase between >1.2 and ≤1.35 is indicated by two stars (**))	0.3 to 1 µM	–
194 to 200 °C	COc1c(-c2cc(=O)n3cc(N4CCNCC4)ccc3n2)cccc1C(F)(F)F [Compound 78, 2-[2-methoxy-3-(trifluoromethyl)phenyl]-7-(piperazin-1-yl)-4H-pyrido[1,2-a]pyrimidin-4-one]	* (A maximum fold increase of ≤1.2 is indicated by one star (*))	1 to 3 µM	–

More lines, now with the values behind:

SMILES	melting point	maximum fold (Fold) increase of Smn protein [1]	EC (1.5-fold increase) [2]	EC1.5x for Smn protein expression [1]
CN(C)c1ccc(-c2cc(=O)n3cc(N4CCNCC4)ccc3n2)cc1 [Compound 53, 2-[4-(dimethylamino)phenyl]-7-(piperazin-1-yl)-4H-pyrido[1,2-a]pyrimidin-4-one]	211 to 215 °C	* (A maximum fold increase of ≤1.2 is indicated by one star (*))	1 to 3 µM	–
C[C@H]1CN(c2ccc3nc(-c4ccc(N(C)C)cc4)cc(=O)n3c2)CCN1 [Compound 54, 2-[4-(dimethylamino)phenyl]-7-[(3S)-3-methylpiperazin-1-yl]-4H-pyrido[1,2-a]pyrimidin-4-one]	199 to 202 °C	* (A maximum fold increase of ≤1.2 is indicated by one star (*))	1 to 3 µM	–
Cc1ccc(-c2cc(=O)n3cc(N4CCN[C@@H](C)C4)ccc3n2)cc1C [Compound 56, 2-(3,4-dimethylphenyl)-7-[(3S)-3-methylpiperazin-1-yl]-4H-pyrido[1,2-a]pyrimidin-4-one]	207 to 209 °C	* (A maximum fold increase of ≤1.2 is indicated by one star (*))	1 to 3 µM	–
C[C@H]1CN(c2ccc3nc(-c4cccc(N(C)C)c4)cc(=O)n3c2)CCN1 [Compound 58, 2-[3-(dimethylamino)phenyl]-7-[(3S)-3-methylpiperazin-1-yl]-4H-pyrido[1,2-a]pyrimidin-4-one]	144 to 146 °C	* (A maximum fold increase of ≤1.2 is indicated by one star (*))	3 to 30 µM	–
O=c1cc(-c2ccc(OC(F)F)cc2)nc2ccc(N3CCNCC3)cn12 [Compound 59, 2-[4-(difluoromethoxy)phenyl]-7-(piperazin-1-yl)-4H-pyrido[1,2-a]pyrimidin-4-one]	131 to 133 °C	* (A maximum fold increase of ≤1.2 is indicated by one star (*))	1 to 3 µM	–
C[C@H]1CN(c2ccc3nc(-c4ccc(OC(F)F)cc4)cc(=O)n3c2)CCN1 [Compound 60, 2-[4-(difluoromethoxy)phenyl]-7-[(3S)-3-methylpiperazin-1-yl]-4H-pyrido[1,2-a]pyrimidin-4-one]	166 to 168 °C	* (A maximum fold increase of ≤1.2 is indicated by one star (*))	1 to 3 µM	–
O=c1cc(-c2cccc([N+](=O)[O-])c2)nc2ccc(N3CCNCC3)cn12 [Compound 62, 2-(3-nitrophenyl)-7-(piperazin-1-yl)-4H-pyrido[1,2-a]pyrimidin-4-one]	175 °C (dec.)	***** (a fold increase >1.65 is indicated by five stars (*****))	0.1 to 0.3 µM	*** (an EC1.5× between >0.3 μM and ≤1 μM is indicated by three stars (***))
COc1ccc(-c2cc(=O)n3cc(N4CC5CCC(C4)N5)ccc3n2)cc1OC [Compound 66, 7-(3,8-diazabicyclo[3.2.1]oct-3-yl)-2-(3,4-dimethoxyphenyl)-4H-pyrido[1,2-a]pyrimidin-4-one]	158 to 161 °C	*** (a fold increase between >1.35 and ≤1.5 is indicated by three stars (***))	0.3 to 1 µM	* (An EC1.5× for Smn protein expression between >3 μM and ≤10 μM is indicated by one star (*))
COc1ccc(-c2cc(=O)n3cc(N4CCN[C@H](C)C4)ccc3n2)cc1C(F)(F)F [Compound 68, 2-[4-methoxy-3-(trifluoromethyl)phenyl]-7-[(3R)-3-methylpiperazin-1-yl]-4H-pyrido[1,2-a]pyrimidin-4-one]	205 to 212 °C	** (a fold increase between >1.2 and ≤1.35 is indicated by two stars (**))	0.1 to 0.3 µM	–
COc1ccc(-c2cc(=O)n3cc(N4CCN[C@@H](C)C4)ccc3n2)cc1C(F)(F)F [Compound 69, 2-[4-methoxy-3-(trifluoromethyl)phenyl]-7-[(3S)-3-methylpiperazin-1-yl]-4H-pyrido[1,2-a]pyrimidin-4-one]	195 to 200 °C	**** (a fold increase between >1.5 and ≤1.65 is indicated by four stars (****))	0.3 to 1 µM	*** (an EC1.5× between >0.3 μM and ≤1 μM is indicated by three stars (***))
N#Cc1ccc(-c2cc(=O)n3cc(N4CCNCC4)ccc3n2)cc1 [Compound 73, 4-[4-oxo-7-(piperazin-1-yl)-4H-pyrido[1,2-a]pyrimidin-2-yl]benzonitrile]	146 to 151 °C	** (a fold increase between >1.2 and ≤1.35 is indicated by two stars (**))	3 to 30 µM	–
Cc1cn2cc(-c3cc(=O)n4cc(N5CCN[C@@H](C)C5)ccc4n3)nc2cn1 [Compound 75, 2-(6-methylimidazo[1,2-a]pyrazin-2-yl)-7-[(3S)-3-methylpiperazin-1-yl]-4H-pyrido[1,2-a]pyrimidin-4-one]	235 to 238 °C	***** (a fold increase >1.65 is indicated by five stars (*****))	< 0.1 µM	**** (an EC1.5x≤0.3 μM is indicated by four stars (****))
